{"source": "patent US10669242B2", "about": "(priority 2016, dated 2020)", "data": [{"biological_target": "T1, recombinant glucosyltransferase domain of C. difficile Toxin B/TcdB (Clostridioides difficile, UniProt P18177)", "T1 construct": "6-His (C); purchased R&D Systems 6246-GT", "T1 sequence (P18177 1-543)": "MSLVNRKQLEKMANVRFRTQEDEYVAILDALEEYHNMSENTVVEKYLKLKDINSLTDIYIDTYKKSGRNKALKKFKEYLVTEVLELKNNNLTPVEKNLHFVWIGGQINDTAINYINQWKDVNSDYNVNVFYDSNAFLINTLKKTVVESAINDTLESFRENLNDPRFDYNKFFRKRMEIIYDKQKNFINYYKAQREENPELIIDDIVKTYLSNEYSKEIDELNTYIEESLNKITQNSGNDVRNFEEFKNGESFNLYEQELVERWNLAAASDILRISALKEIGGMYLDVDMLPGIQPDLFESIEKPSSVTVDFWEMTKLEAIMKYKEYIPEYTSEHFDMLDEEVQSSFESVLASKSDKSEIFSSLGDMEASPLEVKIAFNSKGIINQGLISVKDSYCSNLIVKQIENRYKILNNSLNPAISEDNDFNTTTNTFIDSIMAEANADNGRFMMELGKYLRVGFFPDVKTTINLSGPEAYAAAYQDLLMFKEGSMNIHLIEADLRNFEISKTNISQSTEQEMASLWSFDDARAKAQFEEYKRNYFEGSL", "assay": "biochemical", "settings": "not given", "units": {"IC50": "nM"}, "values": [{"smiles": "O=C(Nc1ccccn1)c1ccc(CN2C(=O)c3ccc(Cl)cc3NC(=O)[C@H]2Cc2ccccn2)s1", "note": "[Example 4bq, (R)-5-((8-chloro-2,5-dioxo-3-(pyridin-2-ylmethyl)-2,3-dihydro-1H-benzo[e][1,4]diazepin-4(5H)-yl)methyl)-N-(pyridin-2-yl)thiophene-2-carboxamide]", "IC50": "100 to 999"}, {"smiles": "COc1ccc(NC(=O)c2ccc(CN3C(=O)c4ccc(Cl)cc4NC(=O)[C@H]3Cc3ccccn3)s2)nc1", "note": "[Example 4br, (R)-5-((8-chloro-2,5-dioxo-3-(pyridin-2-ylmethyl)-2,3-dihydro-1H-benzo[e][1,4]diazepin-4(5H)-yl)methyl)-N-(5-methoxypyridin-2-yl)thiophene-2-carboxamide]", "IC50": "100 to 999"}, {"smiles": "Cc1ccc(NC(=O)c2ccc(CN3C(=O)c4ccc(Cl)cc4NC(=O)[C@H]3Cc3ccccn3)s2)nc1", "note": "[Example 4bs, (R)-5-((8-chloro-2,5-dioxo-3-(pyridin-2-ylmethyl)-2,3-dihydro-1H-benzo[e][1,4]diazepin-4(5H)-yl)methyl)-N-(5-methylpyridin-2-yl)thiophene-2-carboxamide]", "IC50": "100 to 999"}, {"smiles": "O=C(Nc1ccc(C(F)(F)F)cn1)c1ccc(CN2C(=O)c3ccc(Cl)cc3NC(=O)[C@H]2Cc2ccccn2)s1", "note": "[Example 4bt, (R)-5-((8-chloro-2,5-dioxo-3-(pyridin-2-ylmethyl)-2,3-dihydro-1H-benzo[e][1,4]diazepin-4(5H)-yl)methyl)-N-(5-(trifluoromethyl)pyridin-2-yl)thiophene-2-carboxamide]", "IC50": "1000 to 10000"}, {"smiles": "O=C(Nc1ccccn1)c1ccc(CN2C(=O)c3ccc(Cl)cc3NC(=O)C2Cc2cnccn2)cc1", "note": "(stereo not drawn) [Example 4bu, 4-((8-chloro-2,5-dioxo-3-(pyrazin-2-ylmethyl)-2,3-dihydro-1H-benzo[e][1,4]diazepin-4(5H)-yl)methyl)-N-(pyridin-2-yl)benzamide]", "IC50": "< 100"}, {"smiles": "CC(=NO)NC(=O)c1ccc(CN2C(=O)c3ccc(Cl)cc3NC(=O)[C@H]2Cc2cccnc2)cc1", "note": "[Example 4bv, (R)-4-((8-chloro-2,5-dioxo-3-(pyridin-3-ylmethyl)-2,3-dihydro-1H-benzo[e][1,4]diazepin-4(5H)-yl)methyl)-N-(1-(hydroxyimino)ethyl)benzamide]", "IC50": "100 to 999"}, {"smiles": "Cc1cnc(NC(=O)c2ccc(CN3C(=O)c4ccc(Cl)cc4NC(=O)[C@H]3Cc3ccccn3)cc2)s1", "note": "[Example 4bw, (R)-4-((8-chloro-2,5-dioxo-3-(pyridin-2-ylmethyl)-2,3-dihydro-1H-benzo[e][1,4]diazepin-4(5H)-yl)methyl)-N-(5-methylthiazol-2-yl)benzamide]", "IC50": "< 100"}, {"smiles": "Cc1ccc(NC(=O)[C@H]2CC[C@H](CN3C(=O)c4ccc(Cl)cc4NC(=O)[C@H]3Cc3ccccn3)CC2)nc1", "note": "[Example 4bx, (1R,4r)-4-(((R)-8-chloro-2,5-dioxo-3-(pyridin-2-ylmethyl)-2,3-dihydro-1H-benzo[e][1,4]diazepin-4(5H)-yl)methyl)-N-(5-methylpyridin-2-yl)cyclohexanecarboxamide]", "IC50": "< 100"}, {"smiles": "O=C(Nc1nccs1)c1ccc(CN2C(=O)c3ccc(Cl)cc3NC(=O)[C@H]2Cc2cccnc2)cc1", "note": "[Example 4c, (R)-4-((8-chloro-2,5-dioxo-3-(pyridin-3-ylmethyl)-2,3-dihydro-1H-benzo[e][1,4]diazepin-4(5H)-yl)methyl)-N-(thiazol-2-yl)benzamide]", "IC50": "< 100"}, {"smiles": "O=C1Nc2cc(Cl)ccc2C(=O)N(C[C@H]2CC[C@H](C(=O)Nc3ccc(F)cn3)CC2)[C@@H]1Cc1ccccn1", "note": "[Example 4ca, (1R,4r)-4-(((R)-8-chloro-2,5-dioxo-3-(pyridin-2-ylmethyl)-2,3-dihydro-1H-benzo[e][1,4]diazepin-4(5H)-yl)methyl)-N-(5-fluoropyridin-2-yl)cyclohexanecarboxamide]", "IC50": "< 100"}, {"smiles": "Cc1cnc(NC(=O)c2ccc(CN3C(=O)c4ccc(Cl)cc4NC(=O)[C@H]3Cc3ccccn3)cc2Cl)s1", "note": "[Example 4cc, (R)-2-chloro-4-((8-chloro-2,5-dioxo-3-(pyridin-2-ylmethyl)-2,3-dihydro-1H-benzo[e][1,4]diazepin-4(5H)-yl)methyl)-N-(5-methylthiazol-2-yl)benzamide]", "IC50": "< 100"}, {"smiles": "O=C1Nc2cc(Cl)ccc2C(=O)N(Cc2ccc(C(=O)N3CCc4cccnc43)c(Cl)c2)[C@@H]1Cc1ccccn1", "note": "[Example 4cd, (R)-8-chloro-4-(3-chloro-4-(2,3-dihydro-1H-pyrrolo[2,3-b]pyridine-1-carbonyl)benzyl)-3-(pyridin-2-ylmethyl)-3,4-dihydro-1H-benzo[e][1,4]diazepine-2,5-dione]", "IC50": "< 100"}, {"smiles": "COc1cnc(NC(=O)[C@H]2CC[C@H](CN3C(=O)c4ccc(Cl)cc4NC(=O)[C@H]3Cc3ccccn3)CC2)cn1", "note": "[Example 4ce, (1R,4r)-4-(((R)-8-chloro-2,5-dioxo-3-(pyridin-2-ylmethyl)-2,3-dihydro-1H-benzo[e][1,4]diazepin-4(5H)-yl)methyl)-N-(5-methoxypyrazin-2-yl)cyclohexanecarboxamide]", "IC50": "100 to 999"}, {"smiles": "Cc1cnc(NC(=O)[C@H]2CC[C@H](CN3C(=O)c4ccc(Cl)cc4NC(=O)[C@H]3Cc3ccccn3)CC2)cn1", "note": "[Example 4cf, (1R,4r)-4-(((R)-8-chloro-2,5-dioxo-3-(pyridin-2-ylmethyl)-2,3-dihydro-1H-benzo[e][1,4]diazepin-4(5H)-yl)methyl)-N-(5-methylpyrazin-2-yl)cyclohexanecarboxamide]", "IC50": "< 100"}, {"smiles": "O=C1Nc2cc(Cl)ccc2C(=O)N(C[C@H]2CC[C@H](C(=O)N3CCc4cccnc43)CC2)[C@@H]1Cc1ccccn1", "note": "[Example 4cg, (R)-8-chloro-4-(((1r,4R)-4-(2,3-dihydro-1H-pyrrolo[2,3-b]pyridine-1-carbonyl)cyclohexyl)methyl)-3-(pyridin-2-ylmethyl)-3,4-dihydro-1H-benzo[e][1,4]diazepine-2,5-dione]", "IC50": "< 100"}, {"smiles": "O=C1Nc2cc(Cl)ccc2C(=O)N(C[C@H]2CC[C@H](C(=O)N3CCCc4cccnc43)CC2)[C@@H]1Cc1ccccn1", "note": "[Example 4ch, (R)-8-chloro-3-(pyridin-2-ylmethyl)-4-(((1r,4R)-4-(1,2,3,4-tetrahydro-1,8-naphthyridine-1-carbonyl)cyclohexyl)methyl)-3,4-dihydro-1H-benzo[e][1,4]diazepine-2,5-dione]", "IC50": "10000 to 35000"}, {"smiles": "O=C(Nc1ccccn1)c1ccc(CN2C(=O)c3ccc(Cl)cc3NC(=O)[C@H]2Cc2ccccn2)cc1Cl", "note": "[Example 4cj, (R)-2-chloro-4-((8-chloro-2,5-dioxo-3-(pyridin-2-ylmethyl)-2,3-dihydro-1H-benzo[e][1,4]diazepin-4(5H)-yl)methyl)-N-(pyridin-2-yl)benzamide]", "IC50": "< 100"}, {"smiles": "COc1ccc(NC(=O)c2ccc(CN3C(=O)c4ccc(Cl)cc4NC(=O)[C@H]3Cc3ccccn3)cc2OC)nc1", "note": "[Example 4cn, (R)-4-((8-chloro-2,5-dioxo-3-(pyridin-2-ylmethyl)-2,3-dihydro-1H-benzo[e][1,4]diazepin-4(5H)-yl)methyl)-2-methoxy-N-(5-methoxypyridin-2-yl)benzamide]", "IC50": "< 100"}, {"smiles": "Cc1ccc(C[C@@H]2C(=O)Nc3cc(Cl)ccc3C(=O)N2Cc2ccc(C(=O)Nc3ccccn3)cc2)cc1", "note": "[Example 4co, (R)-4-((8-chloro-3-(4-methylbenzyl)-2,5-dioxo-2,3-dihydro-1H-benzo[e][1,4]diazepin-4(5H)-yl)methyl)-N-(pyridin-2-yl)benzamide]", "IC50": "100 to 999"}, {"smiles": "Cn1ccc(NC(=O)c2ccc(CN3C(=O)c4ccc(Cl)cc4NC(=O)[C@H]3Cc3cccnc3)cc2)n1", "note": "[Example 4d, (R)-4-((8-chloro-2,5-dioxo-3-(pyridin-3-ylmethyl)-2,3-dihydro-1H-benzo[e][1,4]diazepin-4(5H)-yl)methyl)-N-(1-methyl-1H-pyrazol-3-yl)benzamide]", "IC50": "100 to 999"}, {"smiles": "Cc1cc(NC(=O)c2ccc(CN3C(=O)c4ccc(Cl)cc4NC(=O)[C@H]3Cc3cccnc3)cc2)no1", "note": "[Example 4e, (R)-4-((8-chloro-2,5-dioxo-3-(pyridin-3-ylmethyl)-2,3-dihydro-1H-benzo[e][1,4]diazepin-4(5H)-yl)methyl)-N-(5-methylisoxazol-3-yl)benzamide]", "IC50": "< 100"}, {"smiles": "C[C@H]1C(=O)Nc2cc(Cl)ccc2C(=O)N1Cc1ccc(C(=O)Nc2ccccn2)cc1", "note": "[Example 4f, (S)-4-((8-chloro-3-methyl-2,5-dioxo-2,3-dihydro-1H-benzo[e][1,4]diazepin-4(5H)-yl)methyl)-N-(pyridin-2-yl)benzamide]", "IC50": "< 100"}, {"smiles": "O=C(Nc1ccccn1)c1ccc(CN2C(=O)c3ccc(Cl)cc3NC(=O)[C@H]2CCc2ccccc2)cc1", "note": "[Example 4g, (R)-4-((8-chloro-2,5-dioxo-3-phenethyl-2,3-dihydro-1H-benzo[e][1,4]diazepin-4(5H)-yl)methyl)-N-(pyridin-2-yl)benzamide]", "IC50": "1000 to 10000"}, {"smiles": "O=C(Nc1ccccn1)c1ccc(CN2C(=O)c3ccc(Cl)cc3NC(=O)[C@H]2Cc2ccccc2)cc1", "note": "[Example 4h, (R)-4-((3-benzyl-8-chloro-2,5-dioxo-2,3-dihydro-1H-benzo[e][1,4]diazepin-4(5H)-yl)methyl)-N-(pyridin-2-yl)benzamide]", "IC50": "< 100"}, {"smiles": "O=C(Nc1ccccn1)c1ccc(CN2C(=O)c3ccc(Cl)cc3NC(=O)[C@H]2Cc2ccc(F)cc2)cc1", "note": "[Example 4i, (R)-4-((8-chloro-3-(4-fluorobenzyl)-2,5-dioxo-2,3-dihydro-1H-benzo[e][1,4]diazepin-4(5H)-yl)methyl)-N-(pyridin-2-yl)benzamide]", "IC50": "< 100"}, {"smiles": "O=C(Nc1ccccn1)c1ccc(CN2C(=O)c3ccc(Cl)cc3NC(=O)[C@H]2Cc2ccc(Cl)cc2)cc1", "note": "[Example 4j, (R)-4-((8-chloro-3-(4-chlorobenzyl)-2,5-dioxo-2,3-dihydro-1H-benzo[e][1,4]diazepin-4(5H)-yl)methyl)-N-(pyridin-2-yl)benzamide]", "IC50": "1000 to 10000"}]}, {"biological_target": "T1, recombinant glucosyltransferase domain of C. difficile Toxin B/TcdB", "assay": "biochemical", "settings": "read-out: TcdB UDP-Glucose hydrolysis activity (IC50, coded); UDP-Glucose hydrolysis assay, fluorescence polarization", "units": {"IC50": "nM"}, "values": [{"smiles": "COc1ccc(NC(=O)C2CCC(CN3C(=O)c4ccc(Cl)cc4NC(=O)[C@H]3Cc3ccccn3)CC2)nc1", "note": "(stereo partly drawn) [Example 4bz, (1R,4r)-4-(((R)-8-chloro-2,5-dioxo-3-(pyridin-2-ylmethyl)-2,3-dihydro-1H-benzo[e][1,4]diazepin-4(5H)-yl)methyl)-N-(5-methoxypyridin-2-yl)cyclohexanecarboxamide]", "IC50": "< 100"}]}]}
